The values that follow come from publication PMC9020739, “Identification of a two-component regulatory system involved in antimicrobial peptide resistance in Streptococcus pneumoniae” (PLoS Pathogens, 2022).

Type in all cases: cell-based, Streptococcus pneumoniae
In one assay the test system is S. pneumoniae R6 Δtcs01. The settings on record: R6 strain; 2-fold broth dilution, Todd-Hewitt medium, 37°C, 15 h; two to four biological replicates, each technical duplicates. The protocol:
(§1) The MIC of various antimicrobial peptides for R6, R800 and D39 strains was determined by classical 2-fold broth dilution method. Cells were first grown in Todd-Hewitt medium at 37°C without agitation and in anaerobic conditions until the absorbance reaches approximatively 0.3. Complementation strains were grown with 0.5 μM ComS inducer until the appropriate OD. Cells were then diluted at final OD600nm = 0.002 in 96-well plates containing 300 μL of Todd-Hewitt medium (and 2 μM ComS inducer for the complementation strains) with serial dilutions of antimicrobial peptides. Pneumococcal growth was monitored by a microplate reader (TECAN) at 37°C without agitation. The absorbance was followed at 600 nm every 15 min for 15 h.
(In broth dilution the organism is exposed to a series of concentrations in liquid medium.)

The test system of a further assay is S. pneumoniae R6 WT. The note with it: R6 strain; for Minimum Inhibitory Concentration, WT: 2-fold broth dilution, Todd-Hewitt medium, 96-well plates, start OD600 0.002, 37°C, A600 followed 15 h, two to four biological replicates, each technical duplicates; for Fold sensitivity displayed by the KO strains: KO strains versus WT MIC. The protocol:
as §1

The test system of assay [1] is S. pneumoniae R6 ΔbceAB/tcs01. The settings on record: R6 strain; 2-fold broth dilution, Todd-Hewitt medium, 37°C, 15 h; two to four biological replicates, each technical duplicates. Here is the method:
as §1

For another assay, the system named is S. pneumoniae R6 ΔbceAB. The note with it: R6 strain; 2-fold broth dilution, Todd-Hewitt medium, 37°C, 15 h; two to four biological replicates, each technical duplicates. Here is the method:
as §1

Where a SMILES comes first, the peptide text is derived from it. Bridges are numbered along the chain shown (N, C = ends). [ ]: non-standard residue; d: D form. The star is where a group is joined. X1 = CC[C@H](C)CCCCC(=O)*; Dab = NCC[C@H](N)C(=O)O

With `CC[C@H](C)CCCCC(=O)N[C@@H](CCN)C(=O)N[C@H](C(=O)N[C@@H](CCN)C(=O)N[C@H]1CCNC(=O)[C@H]([C@@H](C)O)NC(=O)[C@H](CCN)NC(=O)[C@H](CCN)NC(=O)[C@H](CC(C)C)NC(=O)[C@@H](CC(C)C)NC(=O)[C@H](CCN)NC1=O)[C@@H](C)O` [colistin] (X1-[Dab]T[Dab][Dab][Dab][dL]L[Dab][Dab]T; lactam 4-C (inferred); N-terminus assumed), the “Minimum Inhibitory Concentration, Δtcs01” value in the assay with S. pneumoniae R6 Δtcs01 was found to be 256 µg/mL. In the assay on S. pneumoniae R6 WT, the “Minimum Inhibitory Concentration, WT” value turned out to be 256 µg/mL and the “Fold sensitivity displayed by the KO strains” value (“Fold sensitivity displayed” for short) was determined as 1. Besides, the “Minimum Inhibitory Concentration, ΔbceAB/tcs01” value in assay [1] worked out at 256 µg/mL. Besides, the “Minimum Inhibitory Concentration, ΔbceAB” value in the assay on S. pneumoniae R6 ΔbceAB was determined as 256 µg/mL.
For Planosporicin [Planosporicin (NAI-97)], in the assay with S. pneumoniae R6 Δtcs01, the “Minimum Inhibitory Concentration, Δtcs01” value was found to be 2 µg/mL. For the same molecule, in the assay on S. pneumoniae R6 WT, the “Minimum Inhibitory Concentration, WT” value stood at 16 µg/mL and the “Fold sensitivity displayed” value stood at 8. Further, the “Minimum Inhibitory Concentration, ΔbceAB/tcs01” value in assay [1] was 2 µg/mL. Moreover, the “Minimum Inhibitory Concentration, ΔbceAB” value with S. pneumoniae R6 ΔbceAB amounted to 2 µg/mL.
With “Microbisporicin [Microbisporicin (NAI-107)]”, the “Minimum Inhibitory Concentration, Δtcs01” value in the assay with S. pneumoniae R6 Δtcs01 stood at 0.008 µg/mL. Also, in the assay on S. pneumoniae R6 WT, the “Minimum Inhibitory Concentration, WT” value was 0.032 µg/mL and the “Fold sensitivity displayed” value came out at 4. The “Minimum Inhibitory Concentration, ΔbceAB/tcs01” value in assay [1] worked out at 0.008 µg/mL. Moreover, in the assay with S. pneumoniae R6 ΔbceAB, the “Minimum Inhibitory Concentration, ΔbceAB” value amounted to 0.008 µg/mL.
For `CC[C@H](C)[C@H](N)C(=O)N[C@@H](CC(N)=O)C(=O)N[C@@H](CC(C)C)C(=O)N[C@@H](CCCCN)C(=O)N[C@@H](C)C(=O)N[C@@H](CC(C)C)C(=O)N[C@@H](C)C(=O)N[C@@H](C)C(=O)N[C@@H](CC(C)C)C(=O)N[C@@H](C)C(=O)N[C@@H](CCCCN)C(=O)N[C@@H](CCCCN)C(=O)N[C@H](C(=O)N[C@@H](CC(C)C)C(N)=O)[C@@H](C)CC` [mastoporan], in the assay on S. pneumoniae R6 WT, the “Fold sensitivity displayed” value is listed as 1.
For the molecule gramicidin, in the assay with S. pneumoniae R6 Δtcs01, the “Minimum Inhibitory Concentration, Δtcs01” value worked out at 0.016 µg/mL. In the assay with S. pneumoniae R6 WT, the “Minimum Inhibitory Concentration, WT” value is 0.016 µg/mL and the “Fold sensitivity displayed” value was found to be 1. For the same molecule, the “Minimum Inhibitory Concentration, ΔbceAB/tcs01” value in assay [1] turned out to be 0.016 µg/mL. For the same molecule, the “Minimum Inhibitory Concentration, ΔbceAB” value with S. pneumoniae R6 ΔbceAB was found to be 0.016 µg/mL.
